According to ChEMBL document CHEMBL2021815, “Metabolism of 4-Aminopiperidine Drugs by Cytochrome P450s: Molecular and Quantum Mechanical Insights into Drug Design” (ACS Med Chem Lett, 2011):

What was measured:
Type in all cases: ADME, Microsome
CYP2B6 = target: T1, CYP2B6 (Homo sapiens, UniProt P20813); experiment: Half life in human liver microsomes assessed as CYP2B6-mediated parent compound depletion at 1 uM
T1 sequence (P20813 whole entry): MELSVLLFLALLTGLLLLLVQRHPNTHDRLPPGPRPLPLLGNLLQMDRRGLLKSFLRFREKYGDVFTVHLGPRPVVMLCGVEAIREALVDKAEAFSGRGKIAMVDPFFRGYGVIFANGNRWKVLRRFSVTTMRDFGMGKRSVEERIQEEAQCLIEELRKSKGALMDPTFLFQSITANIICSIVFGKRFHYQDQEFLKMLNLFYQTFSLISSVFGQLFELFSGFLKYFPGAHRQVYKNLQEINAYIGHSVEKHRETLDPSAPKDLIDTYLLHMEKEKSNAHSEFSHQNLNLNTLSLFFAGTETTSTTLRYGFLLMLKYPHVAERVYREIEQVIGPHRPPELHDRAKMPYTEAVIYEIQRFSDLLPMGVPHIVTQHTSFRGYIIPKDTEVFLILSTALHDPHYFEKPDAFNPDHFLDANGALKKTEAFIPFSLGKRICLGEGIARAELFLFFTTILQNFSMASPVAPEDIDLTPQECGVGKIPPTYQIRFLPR

CYP1A2 = target: T2, CYP1A2 (Homo sapiens, UniProt P05177); experiment: Half life in human liver microsomes assessed as CYP1A2-mediated parent compound depletion at 1 uM
T2 sequence (P05177 whole entry): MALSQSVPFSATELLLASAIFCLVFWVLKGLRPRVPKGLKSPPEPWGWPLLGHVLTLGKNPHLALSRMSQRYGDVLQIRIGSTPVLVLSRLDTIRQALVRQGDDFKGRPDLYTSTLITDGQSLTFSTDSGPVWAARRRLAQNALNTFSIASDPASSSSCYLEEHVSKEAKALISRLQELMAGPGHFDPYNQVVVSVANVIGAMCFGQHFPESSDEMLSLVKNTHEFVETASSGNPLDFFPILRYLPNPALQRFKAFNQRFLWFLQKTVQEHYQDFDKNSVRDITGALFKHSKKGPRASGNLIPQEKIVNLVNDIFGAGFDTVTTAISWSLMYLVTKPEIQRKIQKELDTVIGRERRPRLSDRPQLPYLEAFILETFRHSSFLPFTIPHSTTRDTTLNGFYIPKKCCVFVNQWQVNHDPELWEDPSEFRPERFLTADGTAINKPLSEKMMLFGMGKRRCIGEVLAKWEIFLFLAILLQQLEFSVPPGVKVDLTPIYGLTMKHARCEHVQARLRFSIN

CYP2C8 = target: T3, CYP2C8 (Homo sapiens, UniProt P10632); experiment: Half life in human liver microsomes assessed as CYP2C8-mediated parent compound depletion at 1 uM
T3 sequence (P10632 whole entry): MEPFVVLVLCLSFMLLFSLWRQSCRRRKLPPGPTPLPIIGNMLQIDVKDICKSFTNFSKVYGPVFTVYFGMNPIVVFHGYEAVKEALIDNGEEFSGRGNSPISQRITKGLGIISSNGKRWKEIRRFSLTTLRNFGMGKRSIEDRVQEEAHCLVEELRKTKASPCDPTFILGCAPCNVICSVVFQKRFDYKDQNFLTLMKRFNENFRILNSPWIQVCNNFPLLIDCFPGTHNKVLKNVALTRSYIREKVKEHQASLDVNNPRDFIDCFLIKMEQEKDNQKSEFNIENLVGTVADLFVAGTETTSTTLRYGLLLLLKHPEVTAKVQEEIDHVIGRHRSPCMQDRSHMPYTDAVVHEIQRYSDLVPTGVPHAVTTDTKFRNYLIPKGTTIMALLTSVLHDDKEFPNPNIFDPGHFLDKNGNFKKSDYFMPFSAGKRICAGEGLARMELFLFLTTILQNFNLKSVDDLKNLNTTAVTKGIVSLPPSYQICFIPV

CYP3A4 = CYP3A4 (Homo sapiens, UniProt P08684); experiment: Half life in human liver microsomes assessed as CYP3A4-mediated parent compound depletion at 1 uM
CYP2C19 = CYP2C19 (Homo sapiens, UniProt P33261); experiment: Half life in human liver microsomes assessed as CYP2C19-mediated parent compound depletion at 1 uM
Liver microsomes = experiment: Clearance in human liver microsomes at 1 uM
CYP2D6 = CYP2D6 (Homo sapiens, UniProt P10635); experiment: Half life in human liver microsomes assessed as CYP2D6-mediated parent compound depletion at 1 uM
CYP2C9 = CYP2C9 (Homo sapiens, UniProt P11712); experiment: Half life in human liver microsomes assessed as CYP2C9-mediated parent compound depletion at 1 uM
Sequence of CYP2C9 (P11712 whole entry): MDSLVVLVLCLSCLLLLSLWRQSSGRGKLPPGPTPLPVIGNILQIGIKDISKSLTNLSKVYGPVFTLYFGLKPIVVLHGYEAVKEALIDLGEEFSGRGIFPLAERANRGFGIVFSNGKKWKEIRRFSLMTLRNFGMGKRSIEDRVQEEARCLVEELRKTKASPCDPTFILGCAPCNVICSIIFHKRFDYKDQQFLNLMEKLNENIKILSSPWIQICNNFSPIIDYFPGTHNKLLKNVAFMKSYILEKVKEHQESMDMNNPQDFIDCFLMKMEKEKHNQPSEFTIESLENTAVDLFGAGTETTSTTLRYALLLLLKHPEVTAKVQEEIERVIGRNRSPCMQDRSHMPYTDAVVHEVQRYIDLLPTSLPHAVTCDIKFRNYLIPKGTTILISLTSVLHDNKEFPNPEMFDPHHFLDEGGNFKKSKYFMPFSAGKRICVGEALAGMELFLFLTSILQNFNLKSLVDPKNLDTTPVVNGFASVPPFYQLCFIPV

Sequence of CYP2C19 (P33261 whole entry): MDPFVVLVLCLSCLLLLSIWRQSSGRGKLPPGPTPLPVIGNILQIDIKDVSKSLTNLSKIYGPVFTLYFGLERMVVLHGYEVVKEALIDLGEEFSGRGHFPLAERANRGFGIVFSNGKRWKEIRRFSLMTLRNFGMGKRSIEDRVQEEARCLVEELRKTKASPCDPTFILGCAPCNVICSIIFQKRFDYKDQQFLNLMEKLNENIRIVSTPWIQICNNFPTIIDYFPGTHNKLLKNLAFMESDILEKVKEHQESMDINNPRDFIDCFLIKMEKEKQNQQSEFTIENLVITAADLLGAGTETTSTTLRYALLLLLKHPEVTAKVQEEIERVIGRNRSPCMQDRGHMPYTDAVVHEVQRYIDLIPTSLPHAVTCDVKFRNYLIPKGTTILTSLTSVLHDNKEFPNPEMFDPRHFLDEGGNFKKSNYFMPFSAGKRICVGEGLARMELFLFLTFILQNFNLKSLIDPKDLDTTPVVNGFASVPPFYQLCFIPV
Sequence of CYP2D6 (P10635 whole entry): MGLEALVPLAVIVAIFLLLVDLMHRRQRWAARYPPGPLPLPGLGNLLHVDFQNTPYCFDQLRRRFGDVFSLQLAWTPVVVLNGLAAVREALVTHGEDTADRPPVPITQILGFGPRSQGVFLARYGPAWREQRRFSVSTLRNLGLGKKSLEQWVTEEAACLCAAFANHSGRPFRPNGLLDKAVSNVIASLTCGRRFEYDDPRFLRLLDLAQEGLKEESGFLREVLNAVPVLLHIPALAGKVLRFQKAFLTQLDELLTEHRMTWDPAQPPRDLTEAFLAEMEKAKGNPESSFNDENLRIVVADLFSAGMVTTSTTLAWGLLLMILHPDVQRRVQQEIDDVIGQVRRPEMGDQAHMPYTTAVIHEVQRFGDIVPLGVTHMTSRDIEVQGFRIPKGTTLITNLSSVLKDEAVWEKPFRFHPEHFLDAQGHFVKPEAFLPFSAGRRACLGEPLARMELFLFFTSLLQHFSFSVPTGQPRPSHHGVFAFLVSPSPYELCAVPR
Sequence of CYP3A4 (P08684 whole entry): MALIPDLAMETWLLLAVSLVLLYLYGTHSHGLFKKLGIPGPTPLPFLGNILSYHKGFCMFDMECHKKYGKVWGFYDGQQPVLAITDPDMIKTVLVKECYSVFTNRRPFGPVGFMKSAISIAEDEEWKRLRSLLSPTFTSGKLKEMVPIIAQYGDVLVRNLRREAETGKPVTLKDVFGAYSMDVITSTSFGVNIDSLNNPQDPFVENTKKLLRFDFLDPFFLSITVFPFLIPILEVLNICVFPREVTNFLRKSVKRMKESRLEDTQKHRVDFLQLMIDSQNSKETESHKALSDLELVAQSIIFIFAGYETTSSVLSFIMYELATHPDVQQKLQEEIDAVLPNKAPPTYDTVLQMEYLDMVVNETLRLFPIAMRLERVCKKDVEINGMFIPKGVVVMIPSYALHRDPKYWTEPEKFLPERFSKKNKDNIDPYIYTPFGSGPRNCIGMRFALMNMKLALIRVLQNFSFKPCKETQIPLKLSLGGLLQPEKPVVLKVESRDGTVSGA

## COc1ccc(CCN2CCC(Nc3nc4ccccc4n3Cc3ccc(F)cc3)CC2)cc1 [ASTEMIZOLE]
CYP2B6
  half-life at 1 µM: > 1 h
CYP1A2
  half-life at 1 µM: > 1 h
CYP2C8
  half-life at 1 µM: > 1 h
CYP3A4
  half-life at 1 µM: 0.025 h
CYP2C19
  half-life at 1 µM: > 1 h
Liver microsomes
  Intrinsic clearance in liver microsomes: 136 µL/min/mg
CYP2D6
  half-life at 1 µM: 0.0667 h
CYP2C9
  half-life at 1 µM: > 1 h

## O=C(CCCN1CCC(n2c(O)nc3ccccc32)CC1)c1ccc(F)cc1 [BENPERIDOL]
CYP2B6
  half-life at 1 µM: > 1 h
CYP1A2
  half-life at 1 µM: > 1 h
CYP2C8
  half-life at 1 µM: 0.73 h
CYP3A4
  half-life at 1 µM: 0.055 h
CYP2C19
  half-life at 1 µM: > 1 h
Liver microsomes
  CLH: 42 µL/min/mg
CYP2D6
  half-life at 1 µM: 0.173 h
CYP2C9
  half-life at 1 µM: > 1 h

## COc1cc(N)c(Cl)cc1C(=O)NC1CCN(CCCOc2ccc(F)cc2)CC1OC (stereo unspecified) [CISAPRIDE]
CYP2B6
  half-life at 1 µM: > 1 h
CYP1A2
  half-life at 1 µM: > 1 h
CYP2C8
  half-life at 1 µM: > 1 h
CYP2C19
  half-life at 1 µM: > 1 h
Liver microsomes
  Intrinsic clearance in liver microsomes: 120.7 µL/min/mg
CYP2D6
  half-life at 1 µM: > 1 h
CYP2C9
  half-life at 1 µM: > 1 h

## COc1cc(N)c(Cl)cc1C(=O)NC1CCN(Cc2ccccc2)CC1 [CLEBOPRIDE]
CYP2B6
  half-life at 1 µM: > 1 h
CYP1A2
  half-life at 1 µM: > 1 h
CYP2C8
  half-life at 1 µM: > 1 h
CYP3A4
  half-life at 1 µM: < 0.0833 h
CYP2C19
  half-life at 1 µM: > 1 h
Liver microsomes
  Intrinsic clearance in liver microsomes: 50.4 µL/min/mg
CYP2D6
  half-life at 1 µM: > 1 h
CYP2C9
  half-life at 1 µM: > 1 h

## O=c1[nH]c2ccccc2n1CCCN1CCC(n2c(=O)[nH]c3cc(Cl)ccc32)CC1 [DOMPERIDONE]
Liver microsomes
  CLH: 108.6 µL/min/mg

## O=C(NC1CCN(CCc2c[nH]c3ccccc23)CC1)c1ccccc1 [INDORAMIN]
CYP2B6
  half-life at 1 µM: > 1 h
CYP1A2
  half-life at 1 µM: > 1 h
CYP2C8
  half-life at 1 µM: > 1 h
CYP3A4
  half-life at 1 µM: 0.267 h
CYP2C19
  half-life at 1 µM: > 1 h
Liver microsomes
  Intrinsic clearance in liver microsomes: 46.4 µL/min/mg
CYP2D6
  half-life at 1 µM: < 0.0833 h
CYP2C9
  half-life at 1 µM: > 1 h

## O=c1[nH]c2ccccc2n1C1CCN(CCCC(c2ccc(F)cc2)c2ccc(F)cc2)CC1 [PIMOZIDE]
CYP2B6
  half-life at 1 µM: > 1 h
CYP1A2
  half-life at 1 µM: > 1 h
CYP2C8
  half-life at 1 µM: > 1 h
CYP3A4
  half-life at 1 µM: 0.045 h
CYP2C19
  half-life at 1 µM: > 1 h
Liver microsomes
  CLH: 57 µL/min/mg
CYP2D6
  half-life at 1 µM: 0.0533 h
CYP2C9
  half-life at 1 µM: > 1 h

## CN(c1nc2ccccc2s1)C1CCN(CC(O)COc2ccc(F)cc2)CC1 (stereo unspecified) [SABELUZOLE]
CYP2B6
  half-life at 1 µM: > 1 h
CYP1A2
  half-life at 1 µM: > 1 h
CYP2C8
  half-life at 1 µM: > 1 h
CYP3A4
  half-life at 1 µM: < 0.0833 h
CYP2C19
  half-life at 1 µM: > 1 h
Liver microsomes
  Intrinsic clearance in liver microsomes: 37 µL/min/mg
CYP2D6
  half-life at 1 µM: 0.025 h
CYP2C9
  half-life at 1 µM: > 1 h
